The numbers were not newly measured in paper PMC11996792, “First-in-human study of CPL’116 – a dual JAK/ROCK inhibitor – in healthy subjects” (Frontiers in Pharmacology, 2025), which cites them from elsewhere.

Like-named read-outs stand apart in the source and are kept apart here.

With `CC[C@@H]1CN(C(=O)NCC(F)(F)F)C[C@@H]1c1cnc2cnc3[nH]ccc3n12` [upadacitinib], the mean half-life (ref Mohamed et al., 2016) is 5.9 to 14.5 h.

`O=S(=O)(c1cccc2c(O)nccc12)N1CCCNCC1` [hydroxyfasudil]: the mean half-life (ref Wolff et al., 2024) is 5.5 to 5.7 h.

On to `C[C@@H]1CCN(C(=O)CC#N)C[C@@H]1N(C)c1ncnc2[nH]ccc12` [tofacitinib], for which the mean half-life runs as follows: (extended-release formulation, ref Lamba et al., 2016) 5.9 h; (immediate formulation, ref Lamba et al., 2016) 3.2 h.

As for `CCS(=O)(=O)N1CC(CC#N)(n2cc(-c3ncnc4[nH]ccc34)cn2)C1` [baricitinib], the mean half-life was 8.5 h (ref Shi et al., 2014) and 5.8 to 7.4 h (ref Zhao et al., 2020).

Regarding `CC(C)NC(=O)COc1cccc(-c2nc(Nc3ccc4[nH]ncc4c3)c3ccccc3n2)c1` [belumosudil], under “ref Schueller et al., 2024”, the mean half-life is 7.5 to 10.9 h.
